Laboratory results published in the NIST ThermoML archive (doi:10.1016/j.jct.2009.06.016).
“And” between values parts separate entries of the source, which are not always exact repeats. Equal entries are not always repeated.

Experiment: xn = mol fraction of the nth substance listed
Settings: 101 kPa, Liquid, Vibrating tube method

CCCOCC(C)O (stereo not drawn) [1-propoxy-2-propanol] + O
mass density
Settings	283.15 K	288.15 K	293.15 K	298.15 K	303.15 K
x1 = 0.001639	999.31 kg/m3	998.703 kg/m3	997.77 kg/m3	996.607 kg/m3	995.166 kg/m3
x1 = 0.003265	999.009 kg/m3	998.36 kg/m3	997.378 kg/m3	996.203 kg/m3	994.729 kg/m3
x1 = 0.01049	998.189 kg/m3	997.309 kg/m3	996.156 kg/m3	994.754 kg/m3	993.101 kg/m3
x1 = 0.01741	997.871 kg/m3	996.708 kg/m3	995.295 kg/m3	993.639 kg/m3	991.738 kg/m3
x1 = 0.02413	997.617 kg/m3	996.172 kg/m3	994.434 kg/m3	992.449 kg/m3	990.242 kg/m3
x1 = 0.02492	997.584 kg/m3	996.099 kg/m3	994.315 kg/m3	992.281 kg/m3	990.035 kg/m3
x1 = 0.03341	997.009 kg/m3	994.916 kg/m3	992.599 kg/m3	990.099 kg/m3	987.376 kg/m3
x1 = 0.0411	995.626 kg/m3	993.032 kg/m3	990.295 kg/m3	987.401 kg/m3	984.348 kg/m3
x1 = 0.04904	993.374 kg/m3	990.531 kg/m3	987.469 kg/m3	984.302 kg/m3	981.013 kg/m3
x1 = 0.05896	990.231 kg/m3	987.111 kg/m3	983.811 kg/m3	980.443 kg/m3	976.913 kg/m3
x1 = 0.06919	987.019 kg/m3	983.629 kg/m3	980.171 kg/m3	976.629 kg/m3	972.832 kg/m3
x1 = 0.07722	984.1 kg/m3	980.908 kg/m3	977.347 kg/m3	973.676 kg/m3	969.873 kg/m3
x1 = 0.08896	980.8 kg/m3	977.203 kg/m3	973.523 kg/m3	969.756 kg/m3	965.792 kg/m3
x1 = 0.09833	977.885 kg/m3	974.328 kg/m3	970.577 kg/m3	966.718 kg/m3	962.723 kg/m3
x1 = 0.1083	975.142 kg/m3	971.439 kg/m3	967.62 kg/m3	963.724 kg/m3	959.684 kg/m3
x1 = 0.1182	972.498 kg/m3	968.762 kg/m3	964.864 kg/m3	960.927 kg/m3	956.826 kg/m3
x1 = 0.1249	970.842 kg/m3	967.03 kg/m3	963.131 kg/m3	959.154 kg/m3	955.036 kg/m3
x1 = 0.1283	969.927 kg/m3	966.142 kg/m3	962.218 kg/m3	958.25 kg/m3	954.135 kg/m3
x1 = 0.1365	967.946 kg/m3	964.14 kg/m3	960.182 kg/m3	956.19 kg/m3	952.054 kg/m3
x1 = 0.1475	965.216 kg/m3	961.573 kg/m3	957.6 kg/m3	953.581 kg/m3	949.414 kg/m3
x1 = 0.1677	961.137 kg/m3	957.197 kg/m3	953.147 kg/m3	949.056 kg/m3	944.898 kg/m3
x1 = 0.1955	955.28 kg/m3	951.825 kg/m3	947.746 kg/m3	943.61 kg/m3	939.419 kg/m3
x1 = 0.2281	950.34 kg/m3	946.219 kg/m3	942.051 kg/m3	937.893 kg/m3	933.693 kg/m3
x1 = 0.2743	943.61 kg/m3	939.47 kg/m3	935.34 kg/m3	931.11 kg/m3	926.81 kg/m3
x1 = 0.3208	937.609 kg/m3	933.429 kg/m3	929.158 kg/m3	924.917 kg/m3	920.58 kg/m3
x1 = 0.3483	934.321 kg/m3	930.247 kg/m3	926.15 kg/m3	921.878 kg/m3	917.532 kg/m3
x1 = 0.3738	931.91 kg/m3	927.69 kg/m3	923.45 kg/m3	919.12 kg/m3	914.74 kg/m3
x1 = 0.4214	927.214 kg/m3	922.877 kg/m3	918.572 kg/m3	914.335 kg/m3	909.931 kg/m3
x1 = 0.4787	922.45 kg/m3	918.2 kg/m3	913.81 kg/m3	909.35 kg/m3	904.97 kg/m3
x1 = 0.5257	918.715 kg/m3	914.413 kg/m3	910.011 kg/m3	905.586 kg/m3	901.122 kg/m3
x1 = 0.548	916.854 kg/m3	912.761 kg/m3	908.503 kg/m3	904.085 kg/m3	899.604 kg/m3
x1 = 0.5771	915.29 kg/m3	910.9 kg/m3	906.52 kg/m3	902.07 kg/m3	897.57 kg/m3
x1 = 0.5977	913.887 kg/m3	909.422 kg/m3	905.093 kg/m3	900.499 kg/m3	896.129 kg/m3
x1 = 0.6247	912.186 kg/m3	907.847 kg/m3	903.425 kg/m3	898.961 kg/m3	894.432 kg/m3
x1 = 0.6264	–	907.647 kg/m3	903.218 kg/m3	898.785 kg/m3	894.261 kg/m3
x1 = 0.6385	911.37 kg/m3	906.945 kg/m3	902.498 kg/m3	897.87 kg/m3	893.542 kg/m3
x1 = 0.672	909.401 kg/m3	905.017 kg/m3	900.577 kg/m3	896.108 kg/m3	891.567 kg/m3
x1 = 0.6758	–	904.871 kg/m3	900.301 kg/m3	895.81 kg/m3	891.293 kg/m3
x1 = 0.6793	909.018 kg/m3	904.571 kg/m3	900.121 kg/m3	895.632 kg/m3	891.142 kg/m3
x1 = 0.7192	906.894 kg/m3	902.407 kg/m3	897.954 kg/m3	893.432 kg/m3	888.909 kg/m3
x1 = 0.7272	906.317 kg/m3	901.907 kg/m3	897.467 kg/m3	892.945 kg/m3	888.391 kg/m3
x1 = 0.7448	905.495 kg/m3	901.061 kg/m3	896.614 kg/m3	892.14 kg/m3	887.56 kg/m3
x1 = 0.7589	904.809 kg/m3	900.364 kg/m3	895.887 kg/m3	891.371 kg/m3	886.848 kg/m3
x1 = 0.7682	903.977 kg/m3	899.934 kg/m3	895.456 kg/m3	890.967 kg/m3	886.382 kg/m3
x1 = 0.7858	903.51 kg/m3	899.08 kg/m3	894.6 kg/m3	890.07 kg/m3	885.47 kg/m3
x1 = 0.7981	902.909 kg/m3	898.495 kg/m3	894.001 kg/m3	889.483 kg/m3	884.923 kg/m3
x1 = 0.8224	901.51 kg/m3	897.287 kg/m3	892.828 kg/m3	888.311 kg/m3	883.721 kg/m3
x1 = 0.8398	901.029 kg/m3	896.637 kg/m3	891.636 kg/m3	887.602 kg/m3	882.984 kg/m3
x1 = 0.8588	900.07 kg/m3	895.641 kg/m3	891.133 kg/m3	886.589 kg/m3	882.007 kg/m3
x1 = 0.8792	898.865 kg/m3	894.921 kg/m3	890.346 kg/m3	885.821 kg/m3	881.196 kg/m3
x1 = 0.8796	899.334 kg/m3	894.851 kg/m3	890.337 kg/m3	885.871 kg/m3	881.204 kg/m3
x1 = 0.8993	898.371 kg/m3	893.936 kg/m3	889.399 kg/m3	884.854 kg/m3	880.259 kg/m3
x1 = 0.9197	897.715 kg/m3 and 897.195 kg/m3	893.212 kg/m3 and 893.204 kg/m3	888.659 kg/m3 and 888.679 kg/m3	884.155 kg/m3 and 884.109 kg/m3	879.548 kg/m3 and 879.479 kg/m3
x1 = 0.9388	896.775 kg/m3	892.326 kg/m3	887.803 kg/m3	883.236 kg/m3	878.623 kg/m3
x1 = 0.9486	896.411 kg/m3	891.949 kg/m3	887.413 kg/m3	882.854 kg/m3	878.219 kg/m3
x1 = 0.9609	895.933 kg/m3	891.451 kg/m3	886.918 kg/m3	882.36 kg/m3	877.745 kg/m3
x1 = 0.9628	896.008 kg/m3	891.604 kg/m3	887.059 kg/m3	882.424 kg/m3	877.865 kg/m3
x1 = 0.9716	895.539 kg/m3	891.059 kg/m3	886.524 kg/m3	881.962 kg/m3	877.362 kg/m3
x1 = 0.9798	895.261 kg/m3	890.77 kg/m3	886.193 kg/m3	881.641 kg/m3	876.998 kg/m3
x1 = 0.9818	895.15 kg/m3	890.664 kg/m3	886.123 kg/m3	881.551 kg/m3	876.955 kg/m3
x1 = 0.9919	894.781 kg/m3	890.294 kg/m3	885.746 kg/m3	881.183 kg/m3	876.546 kg/m3
x1 = 1	894.462 kg/m3	889.963 kg/m3	885.456 kg/m3	880.837 kg/m3	876.279 kg/m3
